Numbers after ± are expanded uncertainties.
Experiment: xn = mol fraction of the nth substance listed
Details: Liquid, Vibrating tube method

For `CC(C)=O` [acetone] + CCCCCCC, the mass density (347.63 K, 54850 kPa, x1 = 0.492) was 716.07 ± 1.4 kg/m3, the mass density (347.63 K, 59840 kPa, x1 = 0.801) was 752.99 ± 1.4 kg/m3 and the mass density (347.63 K, 59850 kPa, x1 = 0.492) was 719.82 ± 1.4 kg/m3. For the same compound, the mass density (347.63 K, 64820 kPa, x1 = 0.801) was 756.73 ± 1.4 kg/m3, the mass density (347.63 K, 64830 kPa, x1 = 0.492) was 723.43 ± 1.4 kg/m3 and the mass density (347.63 K, 64920 kPa, x1 = 0.611) was 733.74 ± 1.4 kg/m3. For the same compound, the mass density (347.63 K, 69910 kPa, x1 = 0.801) was 760.44 ± 1.4 kg/m3, the mass density (347.63 K, 69920 kPa, x1 = 0.611) was 737.26 ± 1.4 kg/m3 and the mass density (347.63 K, 69930 kPa, x1 = 0.492) was 726.98 ± 1.4 kg/m3. It also gave a mass density (347.63 K, 74910 kPa, x1 = 0.492) of 730.29 ± 1.5 kg/m3, a mass density (347.63 K, 79900 kPa, x1 = 0.492) of 733.48 ± 1.5 kg/m3 and a mass density (347.63 K, 84860 kPa, x1 = 0.801) of 770.5 ± 1.4 kg/m3. It also gave a mass density (347.63 K, 84880 kPa, x1 = 0.492) of 736.56 ± 1.5 kg/m3, a mass density (347.63 K, 89840 kPa, x1 = 0.801) of 773.63 ± 1.5 kg/m3 and a mass density (347.63 K, 89860 kPa, x1 = 0.492) of 739.56 ± 1.5 kg/m3. It also gave a mass density (347.63 K, 94820 kPa, x1 = 0.801) of 776.66 ± 1.5 kg/m3, a mass density (347.63 K, 104780 kPa, x1 = 0.801) of 782.49 ± 1.5 kg/m3 and a mass density (347.63 K, 104800 kPa, x1 = 0.492) of 747.95 ± 1.6 kg/m3. It also gave a mass density (347.63 K, 109760 kPa, x1 = 0.611) of 761.37 ± 1.6 kg/m3, a mass density (347.63 K, 109760 kPa, x1 = 0.801) of 785.29 ± 1.5 kg/m3 and a mass density (347.63 K, 109770 kPa, x1 = 0.492) of 750.58 ± 1.6 kg/m3. The mass density (347.63 K, 114860 kPa, x1 = 0.801) was 788.08 ± 1.5 kg/m3, the mass density (347.63 K, 119840 kPa, x1 = 0.801) was 790.72 ± 1.6 kg/m3 and the mass density (347.63 K, 124840 kPa, x1 = 0.492) was 758.13 ± 1.7 kg/m3. The mass density (347.63 K, 124840 kPa, x1 = 0.611) was 769.09 ± 1.6 kg/m3, the mass density (347.63 K, 129860 kPa, x1 = 0.492) was 760.49 ± 1.7 kg/m3 and the mass density (347.63 K, 129860 kPa, x1 = 0.801) was 795.81 ± 1.6 kg/m3. For the same compound, the mass density (347.64 K, 14870 kPa, x1 = 0.611) was 686.95 ± 1.2 kg/m3, the mass density (347.64 K, 19860 kPa, x1 = 0.611) was 693.03 ± 1.2 kg/m3 and the mass density (347.64 K, 24870 kPa, x1 = 0.611) was 698.69 ± 1.3 kg/m3. It also gave a mass density (347.64 K, 29860 kPa, x1 = 0.611) of 703.93 ± 1.3 kg/m3, a mass density (347.64 K, 34870 kPa, x1 = 0.611) of 708.89 ± 1.3 kg/m3 and a mass density (347.64 K, 39870 kPa, x1 = 0.611) of 713.55 ± 1.3 kg/m3. It also gave a mass density (347.64 K, 44850 kPa, x1 = 0.611) of 717.99 ± 1.3 kg/m3, a mass density (347.64 K, 49850 kPa, x1 = 0.611) of 722.19 ± 1.4 kg/m3 and a mass density (347.64 K, 54850 kPa, x1 = 0.611) of 726.18 ± 1.4 kg/m3. For the same compound, the mass density (347.64 K, 59940 kPa, x1 = 0.611) was 730.09 ± 1.4 kg/m3, the mass density (347.64 K, 74910 kPa, x1 = 0.611) was 740.63 ± 1.4 kg/m3 and the mass density (347.64 K, 79900 kPa, x1 = 0.611) was 743.88 ± 1.5 kg/m3. The mass density (347.64 K, 84880 kPa, x1 = 0.611) was 747.05 ± 1.5 kg/m3, the mass density (347.64 K, 89870 kPa, x1 = 0.611) was 750.1 ± 1.5 kg/m3 and the mass density (347.64 K, 94840 kPa, x1 = 0.611) was 753.04 ± 1.5 kg/m3. The mass density (347.64 K, 94850 kPa, x1 = 0.492) was 742.44 ± 1.6 kg/m3, the mass density (347.64 K, 99820 kPa, x1 = 0.492) was 745.23 ± 1.6 kg/m3 and the mass density (347.64 K, 99820 kPa, x1 = 0.611) was 755.91 ± 1.6 kg/m3. It also gave a mass density (347.64 K, 104780 kPa, x1 = 0.611) of 758.67 ± 1.6 kg/m3, a mass density (347.64 K, 114850 kPa, x1 = 0.492) of 753.18 ± 1.6 kg/m3 and a mass density (347.64 K, 114870 kPa, x1 = 0.611) of 764.04 ± 1.6 kg/m3. It also gave a mass density (347.64 K, 119840 kPa, x1 = 0.611) of 766.59 ± 1.6 kg/m3, a mass density (347.64 K, 119860 kPa, x1 = 0.492) of 755.69 ± 1.7 kg/m3 and a mass density (347.64 K, 129860 kPa, x1 = 0.611) of 771.5 ± 1.7 kg/m3. The mass density (357.54 K, 1050 kPa, x1 = 0.7024) was 664.83 ± 1.2 kg/m3, the mass density (357.54 K, 4810 kPa, x1 = 0.7024) was 671.47 ± 1.2 kg/m3 and the mass density (357.54 K, 9820 kPa, x1 = 0.7024) was 679.43 ± 1.2 kg/m3. The mass density (357.54 K, 14810 kPa, x1 = 0.7024) was 686.58 ± 1.2 kg/m3, the mass density (357.54 K, 14860 kPa, x1 = 0.611) was 677.52 ± 1.2 kg/m3 and the mass density (357.54 K, 19810 kPa, x1 = 0.7024) was 693.14 ± 1.2 kg/m3. For the same compound, the mass density (357.54 K, 24800 kPa, x1 = 0.7024) was 699.18 ± 1.3 kg/m3, the mass density (357.54 K, 29900 kPa, x1 = 0.7024) was 704.93 ± 1.3 kg/m3 and the mass density (357.54 K, 34880 kPa, x1 = 0.7024) was 710.21 ± 1.3 kg/m3. For the same compound, the mass density (357.54 K, 39870 kPa, x1 = 0.7024) was 715.16 ± 1.3 kg/m3, the mass density (357.54 K, 44860 kPa, x1 = 0.7024) was 719.83 ± 1.3 kg/m3 and the mass density (357.54 K, 49860 kPa, x1 = 0.7024) was 724.29 ± 1.4 kg/m3. It also gave a mass density (357.54 K, 54850 kPa, x1 = 0.7024) of 728.52 ± 1.4 kg/m3, a mass density (357.54 K, 59830 kPa, x1 = 0.7024) of 732.55 ± 1.4 kg/m3 and a mass density (357.54 K, 64830 kPa, x1 = 0.7024) of 736.42 ± 1.4 kg/m3. It also gave a mass density (357.54 K, 69820 kPa, x1 = 0.7024) of 740.13 ± 1.4 kg/m3, a mass density (357.54 K, 74790 kPa, x1 = 0.7024) of 743.68 ± 1.4 kg/m3 and a mass density (357.54 K, 84760 kPa, x1 = 0.7024) of 750.39 ± 1.5 kg/m3. It also gave a mass density (357.54 K, 94820 kPa, x1 = 0.7024) of 756.74 ± 1.5 kg/m3, a mass density (357.55 K, 1070 kPa, x1 = 0.611) of 655.88 ± 1.2 kg/m3 and a mass density (357.55 K, 1080 kPa, x1 = 0.492) of 647.12 ± 1.2 kg/m3. For the same compound, the mass density (357.55 K, 1300 kPa, x1 = 0.4) was 692.98 ± 1.2 kg/m3, the mass density (357.55 K, 1300 kPa, x1 = 0.8992) was 692.98 ± 1.2 kg/m3 and the mass density (357.55 K, 4850 kPa, x1 = 0.492) was 653.64 ± 1.2 kg/m3. The mass density (357.55 K, 4860 kPa, x1 = 0.611) was 662.51 ± 1.2 kg/m3, the mass density (357.55 K, 5030 kPa, x1 = 0.4) was 699.4 ± 1.2 kg/m3 and the mass density (357.55 K, 5030 kPa, x1 = 0.8992) was 699.4 ± 1.2 kg/m3. The mass density (357.55 K, 9850 kPa, x1 = 0.492) was 661.43 ± 1.2 kg/m3, the mass density (357.55 K, 9860 kPa, x1 = 0.611) was 670.41 ± 1.2 kg/m3 and the mass density (357.55 K, 10030 kPa, x1 = 0.4) was 707.18 ± 1.2 kg/m3. It also gave a mass density (357.55 K, 10030 kPa, x1 = 0.8992) of 707.18 ± 1.2 kg/m3, a mass density (357.55 K, 14850 kPa, x1 = 0.492) of 668.43 ± 1.2 kg/m3 and a mass density (357.55 K, 15010 kPa, x1 = 0.4) of 714.27 ± 1.3 kg/m3. It also gave a mass density (357.55 K, 15010 kPa, x1 = 0.8992) of 714.27 ± 1.2 kg/m3, a mass density (357.55 K, 19840 kPa, x1 = 0.492) of 674.79 ± 1.3 kg/m3 and a mass density (357.55 K, 19870 kPa, x1 = 0.611) of 684.02 ± 1.3 kg/m3. For the same compound, the mass density (357.55 K, 20010 kPa, x1 = 0.4) was 720.81 ± 1.3 kg/m3, the mass density (357.55 K, 20010 kPa, x1 = 0.8992) was 720.81 ± 1.2 kg/m3 and the mass density (357.55 K, 24840 kPa, x1 = 0.492) was 680.72 ± 1.3 kg/m3. The mass density (357.55 K, 24850 kPa, x1 = 0.611) was 689.97 ± 1.3 kg/m3.

Source: the NIST ThermoML archive (doi:10.1016/j.fluid.2010.10.028)
